Reference: US20140296346A1, “Crystalline Forms of (-)-(1R,2R)-3-(3-dimethylamino-1-ethyl-2-methylpropyl)-phenol hydrochloride” (priority 2004, published 2014)
Where a name gives a salt, the structure may show the parent alone.

Legend:
[1] = Variable temperature X-ray powder diffraction experiment; type: physicochemical; details: variable temperature XRPD
Protocol: Variable Temperature X-Ray Powder Diffraction Experiment
A variable temperature X-ray powder diffraction experiment was run thereby producing Form B from Form A. Form A converted to Form B from 40-50° C. during the experiment.

[2] = Stability of the crystalline form under ambient conditions

CC[C@@H](c1cccc(O)c1)[C@@H](C)CN(C)C [Form A, (-)-(1R,2R)-3-(3-dimethylamino-1-ethyl-2-methylpropyl)-phenol hydrochloride]
Temperature at which Form A converted to Form B ([1]; on heating): 40-50 °C | Stability at ambient conditions [2]: very stable | Stability under ambient conditions compared with Form B ([2]; relative to Form B): more stable

CC[C@@H](c1cccc(O)c1)[C@@H](C)CN(C)C.Cl [Form B, (-)-(1R,2R)-3-(3-dimethylamino-1-ethyl-2-methylpropyl)-phenol hydrochloride]
Reversibility of the polymorphic conversion ([1]; at lower temperature): changing over into Form A at lower temperature
